Laboratory results taken from US6355799B1, “Substituted benzene compounds, process for their preparation, and herbicidal and defoliant compositions containing them” (ISK Americas Incorporated, priority 1997, dated 2002).

Experiments:
Type in all cases: in vivo
[1] = tested on: redroot pigweed (Amaranthus retroflexus, AMARE); assay: Post-emerge test, greenhouse herbicide activity screening; settings: post-emerge, 14 days after application, rating scale 0-100
Summary of the method: (§1)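 Fourteen days after spraying, crop and weed injury was graded visually from 0, no effect, to 100, every plant dead. Test substances were dissolved in acetone and applied at 15–1000 g ai/ha with a flat-fan nozzle. Application was either pre-emergence, one day after sowing, or post-emergence at the 2–3 leaf stage.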

[2] = tested on: johnsongrass (Sorghum halepense, SORHA); assay: as above; settings: post-emerge, 14 days after application, rating scale 0-100
Summary of the method: as §1

[3] = tested on: ivyleaf morningglory (Ipomoea hederacea, IPOHE); assay: as above; settings: post-emerge, 14 days after application, rating scale 0-100
Summary of the method: as §1

[4] = tested on: green foxtail (Setaria viridis, SETVI); assay: as above; settings: post-emerge, 14 days after application, rating scale 0-100
Summary of the method: as §1

[5] = tested on: large crabgrass (Digitaria sanguinalis, DIGSA); assay: as above; settings: post-emerge, 14 days after application, rating scale 0-100
Summary of the method: as §1

[6] = tested on: sicklepod (Cassia obtusifolia, CASOB); assay: as above; settings: post-emerge, 14 days after application, rating scale 0-100
Summary of the method: as §1

[7] = tested on: barnyardgrass (Echinochloa crus-galli, ECHCG); assay: as above; settings: post-emerge, 14 days after application, rating scale 0-100
Summary of the method: as §1

[8] = tested on: velvetleaf (Abutilon theophrasti, ABUTH); assay: as above; settings: post-emerge, 14 days after application, rating scale 0-100
Summary of the method: as §1

[9] = tested on: lambsquarters (Chenopodium album, CHEAL); assay: as above; settings: post-emerge, 14 days after application, rating scale 0-100
Summary of the method: as §1

[10] = tested on: redroot pigweed (Amaranthus retroflexus, AMARE); assay: Pre-emerge test, greenhouse herbicide activity screening; settings: pre-emerge, 14 days after application, scale 0-100
Summary of the method: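 Rating: 0–100 visual injury, 14 DAA. Application: acetone, 187 l/ha, 15–1000 g ai/ha, flat-fan track sprayer with nozzle 40–45 cm above soil or canopy. Post-emerge runs used 0.25% v/v surfactant on 2–3 leaf plants.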

[11] = tested on: upland rice (Oryza sp., var. Tebonnet, RICE); assay: Post-emerge test, crop safety; settings: post-emerge, 14 days after application, rating scale 0-100
Summary of the method: (§2)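 Herbicidal damage is scored 0 (none) to 100 (complete plant death) two weeks after a simulated field spray. Rates span 15–1000 g ai/ha, delivered in acetone at 187 l/ha. For post-emergence treatments, plants have 2–3 leaves and the spray carries 0.25% v/v non-ionic surfactant.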

[12] = tested on: field corn (Zea mays L., var. Dekalb 535, CORN); assay: Post-emerge test, crop safety; settings: post-emerge, 14 days after application, rating scale 0-100
Summary of the method: as §2

[13] = tested on: upland rice (Oryza sp., var. Tebonnet, RICE); assay: Pre-emerge test, crop safety; settings: pre-emerge, 14 days after application, scale 0-100
Summary of the method: (§3)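 Plants grown in 10 cm pots of sandy loam mix received acetone-dissolved compounds through a moving flat-fan nozzle. Doses ranged from 15 to 1000 g ai/ha. Pre-emerge pots were seeded one day earlier, post-emerge pots 8–21 days earlier. Fourteen days on, each pot was graded 0–100 for damage.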

[14] = tested on: field corn (Zea mays L., var. Dekalb 535, CORN); assay: Pre-emerge test, crop safety; settings: pre-emerge, 14 days after application, scale 0-100
Summary of the method: as §3

[15] = tested on: johnsongrass (Sorghum halepense, SORHA); assay: Pre-emerge test, greenhouse herbicide activity screening; settings: pre-emerge, 14 days after application, scale 0-100
Summary of the method: as §2

[16] = tested on: ivyleaf morningglory (Ipomoea hederacea, IPOHE); assay: as above; settings: pre-emerge, 14 days after application, scale 0-100
Summary of the method: as §2

[17] = tested on: green foxtail (Setaria viridis, SETVI); assay: as above; settings: pre-emerge, 14 days after application, scale 0-100
Summary of the method: as §2

[18] = tested on: large crabgrass (Digitaria sanguinalis, DIGSA); assay: as above; settings: pre-emerge, 14 days after application, scale 0-100
Summary of the method: as §2

[19] = tested on: sicklepod (Cassia obtusifolia, CASOB); assay: as above; settings: pre-emerge, 14 days after application, scale 0-100
Summary of the method: as §2

[20] = tested on: barnyardgrass (Echinochloa crus-galli, ECHCG); assay: as above; settings: pre-emerge, 14 days after application, scale 0-100
Summary of the method: as §2

[21] = tested on: velvetleaf (Abutilon theophrasti, ABUTH); assay: as above; settings: pre-emerge, 14 days after application, scale 0-100
Summary of the method: as §2

[22] = tested on: lambsquarters (Chenopodium album, CHEAL); assay: as above; settings: pre-emerge, 14 days after application, scale 0-100
Summary of the method: as §2

COc1c(Cl)cc(F)c(-n2c(=O)cc(C(F)(F)F)n(C)c2=O)c1NC(=O)c1ccc2ccccc2c1OC [2-153]
10: DIGSA phytotoxicity rating ([5]; 250 g ai/ha) | ECHCG phytotoxicity rating ([7]; 63 g ai/ha) | RICE phytotoxicity rating (crop damage) ([11]; 250 g ai/ha) | phytotoxicity rating SORHA ([15]; 63 g ai/ha)
20: SORHA phytotoxicity rating ([2]; 250 g ai/ha) | SETVI phytotoxicity rating ([4]; 63 g ai/ha) | ECHCG phytotoxicity rating ([7]; 250 g ai/ha) | phytotoxicity rating RICE (crop damage) ([13]; 250 g ai/ha) | phytotoxicity rating ABUTH ([21]; 63 g ai/ha)
80: CHEAL phytotoxicity rating ([9]; 63 g ai/ha)
30: SETVI phytotoxicity rating ([4]; 250 g ai/ha) | CASOB phytotoxicity rating ([6]; 250 g ai/ha) | phytotoxicity rating SETVI ([17]; 63 g ai/ha)
0: SORHA phytotoxicity rating ([2]; 63 g ai/ha) | DIGSA phytotoxicity rating ([5]; 63 g ai/ha) | CASOB phytotoxicity rating ([6]; 63 g ai/ha) | RICE phytotoxicity rating (crop damage) ([11]; 63 g ai/ha) | phytotoxicity rating RICE (crop damage) ([13]; 63 g ai/ha) | phytotoxicity rating CORN (crop damage) ([14]; 63 g ai/ha) | phytotoxicity rating CORN (crop damage) ([14]; 250 g ai/ha) | phytotoxicity rating SORHA ([15]; 250 g ai/ha) | phytotoxicity rating IPOHE ([16]; 63 g ai/ha) | phytotoxicity rating IPOHE ([16]; 250 g ai/ha) | phytotoxicity rating DIGSA ([18]; 63 g ai/ha) | phytotoxicity rating CASOB ([19]; 63 g ai/ha) | phytotoxicity rating CASOB ([19]; 250 g ai/ha) | phytotoxicity rating ECHCG ([20]; 63 g ai/ha) | phytotoxicity rating ECHCG ([20]; 250 g ai/ha)
70: phytotoxicity rating CHEAL ([22]; 63 g ai/ha)
60: AMARE phytotoxicity rating ([1]; 63 g ai/ha)
95: IPOHE phytotoxicity rating ([3]; 250 g ai/ha) | ABUTH phytotoxicity rating ([8]; 63 g ai/ha) | CHEAL phytotoxicity rating ([9]; 250 g ai/ha)
100: IPOHE phytotoxicity rating ([3]; 63 g ai/ha) | ABUTH phytotoxicity rating ([8]; 250 g ai/ha) | phytotoxicity rating AMARE ([10]; 63 g ai/ha) | phytotoxicity rating AMARE ([10]; 250 g ai/ha)
90: AMARE phytotoxicity rating ([1]; 250 g ai/ha) | phytotoxicity rating SETVI ([17]; 250 g ai/ha) | phytotoxicity rating CHEAL ([22]; 250 g ai/ha)
5: CORN phytotoxicity rating (crop damage) ([12]; 63 g ai/ha) | CORN phytotoxicity rating (crop damage) ([12]; 250 g ai/ha)
40: phytotoxicity rating DIGSA ([18]; 250 g ai/ha)
50: phytotoxicity rating ABUTH ([21]; 250 g ai/ha)

CCOC(=O)C(C)SCC(=O)Nc1c(OC)c(Cl)cc(F)c1-n1c(=O)cc(C(F)(F)F)n(C)c1=O (stereo not shown) [2-171]
80: phytotoxicity rating DIGSA ([18]; 250 g ai/ha)
70: phytotoxicity rating CHEAL ([22]; 63 g ai/ha)
20: phytotoxicity rating DIGSA ([18]; 63 g ai/ha)
10: SORHA phytotoxicity rating ([2]; 250 g ai/ha) | SETVI phytotoxicity rating ([4]; 250 g ai/ha) | DIGSA phytotoxicity rating ([5]; 250 g ai/ha) | RICE phytotoxicity rating (crop damage) ([11]; 250 g ai/ha) | CORN phytotoxicity rating (crop damage) ([12]; 250 g ai/ha) | phytotoxicity rating RICE (crop damage) ([13]; 250 g ai/ha) | phytotoxicity rating SORHA ([15]; 63 g ai/ha) | phytotoxicity rating IPOHE ([16]; 63 g ai/ha) | phytotoxicity rating CASOB ([19]; 63 g ai/ha) | phytotoxicity rating ECHCG ([20]; 250 g ai/ha)
30: AMARE phytotoxicity rating ([1]; 63 g ai/ha) | CASOB phytotoxicity rating ([6]; 63 g ai/ha) | phytotoxicity rating SORHA ([15]; 250 g ai/ha) | phytotoxicity rating SETVI ([17]; 63 g ai/ha) | phytotoxicity rating CASOB ([19]; 250 g ai/ha)
50: AMARE phytotoxicity rating ([1]; 250 g ai/ha) | phytotoxicity rating AMARE ([10]; 63 g ai/ha)
40: CASOB phytotoxicity rating ([6]; 250 g ai/ha) | CHEAL phytotoxicity rating ([9]; 63 g ai/ha)
0: SORHA phytotoxicity rating ([2]; 63 g ai/ha) | SETVI phytotoxicity rating ([4]; 63 g ai/ha) | DIGSA phytotoxicity rating ([5]; 63 g ai/ha) | ECHCG phytotoxicity rating ([7]; 63 g ai/ha) | ECHCG phytotoxicity rating ([7]; 250 g ai/ha) | RICE phytotoxicity rating (crop damage) ([11]; 63 g ai/ha) | CORN phytotoxicity rating (crop damage) ([12]; 63 g ai/ha) | phytotoxicity rating RICE (crop damage) ([13]; 63 g ai/ha) | phytotoxicity rating CORN (crop damage) ([14]; 63 g ai/ha) | phytotoxicity rating CORN (crop damage) ([14]; 250 g ai/ha) | phytotoxicity rating ECHCG ([20]; 63 g ai/ha)
60: IPOHE phytotoxicity rating ([3]; 63 g ai/ha) | ABUTH phytotoxicity rating ([8]; 63 g ai/ha) | phytotoxicity rating IPOHE ([16]; 250 g ai/ha)
100: IPOHE phytotoxicity rating ([3]; 250 g ai/ha) | ABUTH phytotoxicity rating ([8]; 250 g ai/ha) | phytotoxicity rating AMARE ([10]; 250 g ai/ha) | phytotoxicity rating ABUTH ([21]; 250 g ai/ha) | phytotoxicity rating CHEAL ([22]; 250 g ai/ha)
90: CHEAL phytotoxicity rating ([9]; 250 g ai/ha) | phytotoxicity rating SETVI ([17]; 250 g ai/ha) | phytotoxicity rating ABUTH ([21]; 63 g ai/ha)
